The target of assay [1] is phencyclidene (PCP) receptors. The experiment in a line: [3H]TCP receptor binding (RBS1), rat brain cortex membranes. The settings on record: for IC50: [3H]TCP, rat brain cortex membranes, read-out: Inhibition of [^3 H]TCP Receptor Binding, RBS1 IC50; for potency compared with TCP and MK-801 (in words): comparison from Table II; for inhibition of [^3 H]TCP receptor binding (in words): conclusion from Table II. On the procedure:
Tritiated TCP binding, designated RBS1, was carried out essentially as described in J. Pharmacol. Exp. Ther., 238, 739-748 (1986).

The subject of assay [2] is cultured rat cortical neurons. Nature of the assay: Inhibition of hypoxia induced [45Ca] influx (HCI) into cultured rat cortical neurons. The format is cell-based. The settings on record: for IC50: Cortical neurone, cultured rat cortical neurons, 95% N2/5% CO2, 37° C., 4 hours; for inhibition of hypoxia induced calcium influx (in words): conclusion from Table IV. The source says:
(§1) The ability of the compounds of the instant invention to inhibit the glutamate and hypoxia stimulated influx of calcium into cultured rat cortical neurons is shown in Table III and Table IV respectively. The methodology for determining the ability of the compounds of the instant invention to inhibit the glutamate stimulated calcium influx (GCI) into cultured rat cortical neurons is to be found in: A. W. Probert and F. W. Marcoux, Soc. Neurosci. Abstr., 13, Part II, 754, (1987). Using a similar culture system, the ability of the compounds of the instant invention to inhibit the hypoxia stimulated influx of calcium (HCI) was determined by incubating cultured cells in an atmosphere of nitrogen (95%) and CO2 (5%) at 37° C. for a period of 4 hours. Calcium influx was determined by subtraction of the stimulated influx in the presence of tetrodotoxin (3 μM) and magnesium (10 mM) from that found in the absence (control) and in the presence of the test substance.

Assay [3] has as its system cultured rat cortical neurons. The experiment in a line: Inhibition of glutamate stimulated [45Ca] influx (GCI) into cultured rat cortical neurons. Conditions: for IC50: Cortical neurone, cultured rat cortical neurons, glutamate stimulated; for inhibition of glutamate stimulated influx of calcium (in words): conclusion from Table III. It is filed as cell-based.
Excerpt: as §1

A word on the IC50: it is the concentration at which inhibition is half-maximal. In the case of `NC12CCCCC1Cc1ccccc12` (centres unmarked) [Example 1, 1,2,3,4,9,9a-hexahydro-4aH-fluoren-4a-amine], in assay [1], the IC50 came out at 27 nM; the “potency compared with TCP and MK-801 (in words)” value was “potency comparable to both TCP and MK-801”; the “inhibition of [^3 H]TCP receptor binding (in words)” value is given as “potent inhibitors”. Moreover, in assay [2], the IC50 came to 167 nM and the “inhibition of hypoxia induced calcium influx (in words)” value is recorded as “potent inhibitors”.

On to `CNC12CCCCC1Cc1ccccc12` (centres unmarked) [Example 2, 1,2,3,4,9,9a-hexahydro-N-methyl-4aH-fluoren-4a-amine], for which, in assay [3], the IC50 was found to be 304 nM and the “inhibition of glutamate stimulated influx of calcium (in words)” value (“inhibition … of calcium (in words)” below) was “inhibit the glutamate stimulated influx of calcium”. For the same compound, in assay [1], the IC50 worked out at 15 nM; the “potency compared with TCP and MK-801 (in words)” value was “potency comparable to both TCP and MK-801”; the “inhibition of [^3 H]TCP receptor binding (in words)” value is “potent inhibitors”. For the same compound, in assay [2], 5 nM corresponded to half-maximal inhibition (IC50) and the “inhibition of hypoxia induced calcium influx (in words)” value is on record as “potent inhibitors”.

For the compound `COCCCNC12CCCCC1Cc1ccccc12` (centres unmarked) [Example 8, 1,2,3,4,9,9a-hexahydro-N-(3-methoxypropyl)-4aH-fluoren-4a-amine], in assay [3], the IC50 amounted to 1900 nM and the “inhibition … of calcium (in words)” value was “inhibit the glutamate stimulated influx of calcium”. In assay [1], the IC50 stood at 102 nM and the “inhibition of [^3 H]TCP receptor binding (in words)” value is given as “potent inhibitors”. In assay [2], the midpoint of inhibition, the IC50, lay at 43 nM and the “inhibition of hypoxia induced calcium influx (in words)” value was “potent inhibitors”.

Regarding `CNC12CC(C)CCC1Cc1ccccc12` (centres unmarked) [Example 12, 1,2,3,4,9,9a-hexahydro-3-methyl-N-methyl-(4aH)-fluoren-4a-amine], in assay [3], the IC50 stood at 1900 nM and the “inhibition … of calcium (in words)” value is listed as “inhibit the glutamate stimulated influx of calcium”. Moreover, in assay [1], the IC50 was determined as 95 nM and the “inhibition of [^3 H]TCP receptor binding (in words)” value is “potent inhibitors”. Moreover, in assay [2], the IC50 was determined as 95 nM and the “inhibition of hypoxia induced calcium influx (in words)” value is given as “potent inhibitors”.

Turning to `CCNC12CCCCC1Oc1ccccc12` (centres unmarked) [Example 27, N-ethyl-6,7,8,9-tetrahydro-9a(5aH)-dibenzofuranamine], in assay [3], the IC50 came out at 1800 nM and the “inhibition … of calcium (in words)” value is recorded as “inhibit the glutamate stimulated influx of calcium”. Besides, in assay [1], the IC50 worked out at 141 nM and the “inhibition of [^3 H]TCP receptor binding (in words)” value is “potent inhibitors”. For the same compound, in assay [2], the midpoint of inhibition, the IC50, lay at 124 nM and the “inhibition of hypoxia induced calcium influx (in words)” value was “potent inhibitors”.

For the compound `CNC12CCCCC1Sc1ccccc12` (centres unmarked) [Example 30, 6,7,8,9-tetrahydro-N-methyl-9a(5aH)-dibenzothiophenamine], in assay [3], the IC50 is 260 nM and the “inhibition … of calcium (in words)” value was “inhibit the glutamate stimulated influx of calcium”. Also, in assay [1], the IC50 turned out to be 10 nM; the “potency compared with TCP and MK-801 (in words)” value was “potency comparable to both TCP and MK-801”; the “inhibition of [^3 H]TCP receptor binding (in words)” value was “potent inhibitors”. In addition, in assay [2], the IC50 is 200 nM and the “inhibition of hypoxia induced calcium influx (in words)” value is on record as “potent inhibitors”.

Consider `C[C@]12N[C@H](Cc3ccccc31)c1ccccc12` [MK-801, reference compound], for which the results for the IC50 in assay [3] and in assay [2] were 51 nM and 34 nM, respectively.

Take `c1ccc(C2(N3CCCCC3)CCCCC2)cc1` [PCP, phencyclidene, reference compound]: the IC50 in assay [3] came out at 160 nM; in assay [1] it was 40 nM; in assay [2] it was 45 nM.

On to `CNC1(c2ccccc2Cl)CCCCC1=O` (centres unmarked) [ketamine, reference compound], for which the IC50 in assay [3] amounted to 5500 nM; in assay [2], 1900 nM.
